Assay results: the supplement of paper PMC11208160

test: recombinant UMI read abundance after kanamycin selection (control-corrected) (log10(CPM+1)); higher = more efficient recombination; extreme values may be limits of the assay; sequences stand for … in AGTGCAGAGAAAATCGGCCAGTTTTCTCTGCCTGCAGTCCGCATGCCGTGGGACCCCTTGGGTTCTAACCTGTTGCCTAGATTTATGCAGCGGACTGCCTTTCTCCCAAAGTGATAAACCGG…AGGTTGGTTTCACT; site = the 11-nt donor
Experimental: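 Pooled E. coli donor-specificity screen for the IS621 bridge recombinase. Each library member carries a reprogrammed 11-nt donor and a full-length LE bridge RNA expressed in cis from the natural promoter, with a paired donor-binding loop (8-nt LDG + 4-nt RDG) and a target-binding loop fixed to T5. It is co-electroporated with a T5 target plasmid; recombinase is induced with 0.07 mM IPTG and recombinants are selected on kanamycin. UMIs are counted as CPM, averaged over two biological replicates and corrected by the unselected control. Molecule = full bridge RNA written as DNA, built from the T5 scaffold: LDG = donor specificity nt 1-8, RDG = reverse complement of nt 8-11.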
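Note: IS621 bridge recombinase in Escherichia coli cells against a fixed T5 target plasmid.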

Sequence	recombinant UMI read abundance (log10)
ACACGAACATGGACCGGTTTTCCCGGTAATCCGTATTTGTT (site ACACGAACTGA)	1.96
ACACGAACATGGACCGGTTTTCCCGGTAATCCGTATTTGTT (site ACACGAACTTA)	1.35
ACACGGACATGGACCGGTTTTCCCGGTAATCCGTATTTGCT (site ACACGGACTAG)	2.76
ACACGTACATGGACCGGTTTTCCCGGTAATCCGTATTTGGG (site ACACGTACTCC)	0.42
ACACTATCATGGACCGGTTTTCCCGGTAATCCGTATTTGCG (site ACACTATCTCG)	2.79
ACACTATCATGGACCGGTTTTCCCGGTAATCCGTATTTGCG (site ACAGTATCTTG)	0
ACACTCCCATGGACCGGTTTTCCCGGTAATCCGTATTTGCG (site CTGACGACTAC)	0.0266
ACACTGGCATGGACCGGTTTTCCCGGTAATCCGTATTTGAG (site ACACTGGCTCT)	1.38
ACAGATCCATGGACCGGTTTTCCCGGTAATCCGTATTTGAC (site ACAAATCCTGT)	0
ACAGATCCATGGACCGGTTTTCCCGGTAATCCGTATTTGAC (site ACACATCCTGT)	0
ACAGATCCATGGACCGGTTTTCCCGGTAATCCGTATTTGAC (site ACAGATCCTGT)	0.651
ACAGATCCATGGACCGGTTTTCCCGGTAATCCGTATTTGAC (site ACATATCCTGT)	0.985
ACAGCATCATGGACCGGTTTTCCCGGTAATCCGTATTTGCA (site ACAGAATCTTG)	0.803
ACAGCATCATGGACCGGTTTTCCCGGTAATCCGTATTTGCA (site ACAGCATCTTG)	2.11
ACAGCATCATGGACCGGTTTTCCCGGTAATCCGTATTTGCA (site ACAGGATCTTG)	0
ACAGCATCATGGACCGGTTTTCCCGGTAATCCGTATTTGCA (site ACAGTATCTTG)	1.73
ACAGCTTCATGGACCGGTTTTCCCGGTAATCCGTATTTGGC (site ACAGCTTCTGC)	3.35
ACAGGACCATGGACCGGTTTTCCCGGTAATCCGTATTTGCA (site ACAGGACCTTG)	0
ACAGGACCATGGACCGGTTTTCCCGGTAATCCGTATTTGCA (site ACAGTATCTTG)	1.52
ACAGGATCATGGACCGGTTTTCCCGGTAATCCGTATTTGAA (site ACAGGATCTTT)	2.93
ACAGGATCATGGACCGGTTTTCCCGGTAATCCGTATTTGAA (site ACAGTATCTTG)	0
ACAGGTGCATGGACCGGTTTTCCCGGTAATCCGTATTTGAT (site ACAGGTGCTAT)	2.2

Sequence	recombinant UMI read abundance (log10)
ACAGGTGCATGGACCGGTTTTCCCGGTAATCCGTATTTGAT (site CCAGGTGCTAT)	2.2
ACAGGTGCATGGACCGGTTTTCCCGGTAATCCGTATTTGAT (site GCAGGTGCTAT)	0.572
ACAGGTGCATGGACCGGTTTTCCCGGTAATCCGTATTTGAT (site TCAGGTGCTAT)	1.78
ACAGTAACATGGACCGGTTTTCCCGGTAATCCGTATTTGCA (site ACAGTAACTTG)	2.83
ACAGTAACATGGACCGGTTTTCCCGGTAATCCGTATTTGCA (site ACAGTACCTTG)	0
ACAGTAACATGGACCGGTTTTCCCGGTAATCCGTATTTGCA (site ACAGTAGCTTG)	1.39
ACAGTAACATGGACCGGTTTTCCCGGTAATCCGTATTTGCA (site ACAGTATCTTG)	1.65
ACAGTAACATGGACCGGTTTTCCCGGTAATCCGTATTTGGA (site ACAGTAACTTC)	2.19
ACAGTAACATGGACCGGTTTTCCCGGTAATCCGTATTTGGA (site ACAGTATCTTG)	0
ACAGTATCATGGACCGGTTTTCCCGGTAATCCGTATTTGGA (site ACAGTATCTTA)	2.36
ACAGTATCATGGACCGGTTTTCCCGGTAATCCGTATTTGGA (site ACAGTATCTTC)	2.88
ACAGTATCATGGACCGGTTTTCCCGGTAATCCGTATTTGGA (site ACAGTATCTTG)	2.02
ACAGTATCATGGACCGGTTTTCCCGGTAATCCGTATTTGGA (site ACAGTATCTTT)	2.61
ACAGTGGCATGGACCGGTTTTCCCGGTAATCCGTATTTGCT (site ACAGTGGCTAG)	2.32
ACAGTTCCATGGACCGGTTTTCCCGGTAATCCGTATTTGAA (site ACAGTTCCTTT)	1.36
ACAGTTTCATGGACCGGTTTTCCCGGTAATCCGTATTTGTA (site ACAGTATCTTG)	1.19
ACAGTTTCATGGACCGGTTTTCCCGGTAATCCGTATTTGTA (site ACAGTTTCTTA)	2.49
ACATAGACATGGACCGGTTTTCCCGGTAATCCGTATTTGGG (site ACATAGACTCC)	0.469
ACATAGACATGGACCGGTTTTCCCGGTAATCCGTATTTGGG (site ACCTAGACTCC)	0.0175
ACATAGACATGGACCGGTTTTCCCGGTAATCCGTATTTGGG (site ACGTAGACTCC)	0.00831
ACATAGACATGGACCGGTTTTCCCGGTAATCCGTATTTGGG (site ACTTAGACTCC)	0.0189
ACATATCCATGGACCGGTTTTCCCGGTAATCCGTATTTGAC (site ACAAATCCTGT)	0

Sequence	recombinant UMI read abundance (log10)
ACATATCCATGGACCGGTTTTCCCGGTAATCCGTATTTGAC (site ACACATCCTGT)	0.817
ACATATCCATGGACCGGTTTTCCCGGTAATCCGTATTTGAC (site ACAGATCCTGT)	0
ACATATCCATGGACCGGTTTTCCCGGTAATCCGTATTTGAC (site ACATATCCTGT)	1.43
ACATCATCATGGACCGGTTTTCCCGGTAATCCGTATTTGCT (site ACATCATCTAG)	1.39
ACATCATCATGGACCGGTTTTCCCGGTAATCCGTATTTGCT (site CGATCATCTAG)	1.05
ACATCTGCATGGACCGGTTTTCCCGGTAATCCGTATTTGGT (site ACATCTGCTAC)	2.1
ACATCTGCATGGACCGGTTTTCCCGGTAATCCGTATTTGTG (site ACATCTACTCA)	0.401
ACATCTGCATGGACCGGTTTTCCCGGTAATCCGTATTTGTG (site ACATCTCCTCA)	0.0207
ACATCTGCATGGACCGGTTTTCCCGGTAATCCGTATTTGTG (site ACATCTGCTCA)	1.37
ACATCTGCATGGACCGGTTTTCCCGGTAATCCGTATTTGTG (site ACATCTTCTCA)	0.5
ACATGAACATGGACCGGTTTTCCCGGTAATCCGTATTTGAG (site ACATGAACTCT)	2.07
ACATGAACATGGACCGGTTTTCCCGGTAATCCGTATTTGTC (site ACAAGAACTGA)	0
ACATGAACATGGACCGGTTTTCCCGGTAATCCGTATTTGTC (site ACACGAACTGA)	0.197
ACATGAACATGGACCGGTTTTCCCGGTAATCCGTATTTGTC (site ACAGGAACTGA)	0
ACATGAACATGGACCGGTTTTCCCGGTAATCCGTATTTGTC (site ACATGAACTGA)	1.57
ACATGACCATGGACCGGTTTTCCCGGTAATCCGTATTTGCC (site ACATGACCTGG)	0
ACATGCGCATGGACCGGTTTTCCCGGTAATCCGTATTTGCA (site ACATGCGCTTG)	2.86
ACATGTACATGGACCGGTTTTCCCGGTAATCCGTATTTGGT (site ACATGTACTAC)	1.73
ACATTCTCATGGACCGGTTTTCCCGGTAATCCGTATTTGCC (site ACATTCTCTGG)	1.63
ACATTGACATGGACCGGTTTTCCCGGTAATCCGTATTTGAA (site ACATTGACTTT)	1.76
ACATTTACATGGACCGGTTTTCCCGGTAATCCGTATTTGTG (site ACATATACTCA)	0.00866
